Experimental data reported in ChEMBL document CHEMBL4371002 (J Med Chem, 2018).
Square brackets hold non-standard residues; d marks the D form. Peptide text beside a SMILES is read from it. * marks the point of attachment. X1 = CC(C)[C@H](/C=C(\Cl)[C@H](C)N)C(=O)*; Dip = N[C@H](C(=O)O)C(c1ccccc1)c1ccccc1; Abu(4,4-F2) = N[C@@H](CC(F)F)C(=O)O; PhLac = O=C(O)[C@@H](O)Cc1ccccc1; Cha = N[C@@H](CC1CCCCC1)C(=O)O; Abu = CC[C@H](N)C(=O)O

Experiments:
Carbonic anhydrase 2 = Carbonic anhydrase 2 (Bos taurus, UniProt P00921)
Sequence of Carbonic anhydrase 2 (P00921 whole entry): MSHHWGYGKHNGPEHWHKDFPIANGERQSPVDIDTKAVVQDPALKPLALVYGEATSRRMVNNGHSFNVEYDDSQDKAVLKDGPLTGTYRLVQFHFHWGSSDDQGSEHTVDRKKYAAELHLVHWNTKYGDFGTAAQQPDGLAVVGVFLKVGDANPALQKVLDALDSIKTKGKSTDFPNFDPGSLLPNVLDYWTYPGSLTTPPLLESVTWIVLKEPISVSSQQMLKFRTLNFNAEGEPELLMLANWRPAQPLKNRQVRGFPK

physchem [1] = experiment: physchem
T47D = experiment: cells; assay type: functional, cell-based; settings: Homo sapiens
in vitro = settings: plasma
physchem [2] = settings: buffer, pH 7.4
[3] = target: Delta-type opioid receptor (Homo sapiens, UniProt P41143)
Sequence of Delta-type opioid receptor (P41143 whole entry): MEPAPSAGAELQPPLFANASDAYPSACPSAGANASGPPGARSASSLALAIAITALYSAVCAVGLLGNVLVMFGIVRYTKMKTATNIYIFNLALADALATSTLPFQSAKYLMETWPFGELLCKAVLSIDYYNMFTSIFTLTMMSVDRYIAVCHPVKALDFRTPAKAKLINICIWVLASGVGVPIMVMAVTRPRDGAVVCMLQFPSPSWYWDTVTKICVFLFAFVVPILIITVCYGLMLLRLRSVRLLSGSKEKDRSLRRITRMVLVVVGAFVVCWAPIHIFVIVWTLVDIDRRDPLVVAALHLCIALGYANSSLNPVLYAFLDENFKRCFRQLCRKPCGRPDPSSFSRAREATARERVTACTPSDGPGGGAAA

NS3 protease = NS3 protease (Hepacivirus C, UniProt C1KIQ2); design: species or system Hepacivirus hominis
Sequence of NS3 protease (C1KIQ2 whole entry): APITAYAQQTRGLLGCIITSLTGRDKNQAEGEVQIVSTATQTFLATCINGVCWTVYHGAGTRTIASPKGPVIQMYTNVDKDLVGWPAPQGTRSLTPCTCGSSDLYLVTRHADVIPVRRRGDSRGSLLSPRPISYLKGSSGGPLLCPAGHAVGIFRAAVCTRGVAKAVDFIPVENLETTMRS

Steryl-sulfatase [4] = target: T1, Steryl-sulfatase (Homo sapiens, UniProt P08842)
T1 sequence (P08842 whole entry): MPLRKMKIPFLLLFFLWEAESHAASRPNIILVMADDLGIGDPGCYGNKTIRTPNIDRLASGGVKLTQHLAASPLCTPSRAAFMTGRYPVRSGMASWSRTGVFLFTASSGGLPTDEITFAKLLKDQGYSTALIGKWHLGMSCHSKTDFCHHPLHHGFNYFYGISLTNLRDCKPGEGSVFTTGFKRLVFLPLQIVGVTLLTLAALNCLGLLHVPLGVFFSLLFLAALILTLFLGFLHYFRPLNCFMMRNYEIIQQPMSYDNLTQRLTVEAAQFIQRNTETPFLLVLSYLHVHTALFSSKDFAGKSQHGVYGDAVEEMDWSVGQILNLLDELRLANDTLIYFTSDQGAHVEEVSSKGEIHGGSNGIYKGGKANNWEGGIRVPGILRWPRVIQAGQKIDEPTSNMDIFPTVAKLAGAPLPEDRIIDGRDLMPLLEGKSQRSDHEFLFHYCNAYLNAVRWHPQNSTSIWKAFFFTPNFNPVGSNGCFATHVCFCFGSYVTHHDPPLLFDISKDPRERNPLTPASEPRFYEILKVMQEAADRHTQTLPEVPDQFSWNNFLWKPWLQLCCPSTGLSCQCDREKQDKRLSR

Steryl-sulfatase [5] = target: T1, Steryl-sulfatase; remark: listed apart in the source
[6] = target: T2, 3-oxo-5-alpha-steroid 4-dehydrogenase 1 (Homo sapiens, UniProt P18405); assay type: cell-based, HEK293
T2 sequence (P18405 whole entry): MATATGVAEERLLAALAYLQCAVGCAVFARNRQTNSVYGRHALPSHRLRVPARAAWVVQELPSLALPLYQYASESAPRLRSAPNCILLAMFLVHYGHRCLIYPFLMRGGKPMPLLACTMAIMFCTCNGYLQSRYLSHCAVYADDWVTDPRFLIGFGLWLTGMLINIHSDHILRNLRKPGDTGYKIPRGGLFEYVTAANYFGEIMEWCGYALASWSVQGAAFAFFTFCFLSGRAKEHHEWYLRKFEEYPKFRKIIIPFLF

[7] = target: T3, 3-oxo-5-alpha-steroid 4-dehydrogenase 2 (Homo sapiens, UniProt P31213); assay type: cell-based, HEK293
T3 sequence (P31213 whole entry): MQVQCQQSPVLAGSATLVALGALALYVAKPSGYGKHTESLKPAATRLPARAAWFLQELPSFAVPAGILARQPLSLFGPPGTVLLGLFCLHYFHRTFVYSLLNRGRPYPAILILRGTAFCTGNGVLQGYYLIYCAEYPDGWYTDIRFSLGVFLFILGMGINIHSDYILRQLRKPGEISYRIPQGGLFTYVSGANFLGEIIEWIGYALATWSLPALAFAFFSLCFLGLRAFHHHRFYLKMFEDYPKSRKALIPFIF

[8] = target: Trypanothione reductase (Trypanosoma cruzi) (UniProt P28593)
Sequence of Trypanothione reductase (Trypanosoma cruzi) (P28593 whole entry, looked up): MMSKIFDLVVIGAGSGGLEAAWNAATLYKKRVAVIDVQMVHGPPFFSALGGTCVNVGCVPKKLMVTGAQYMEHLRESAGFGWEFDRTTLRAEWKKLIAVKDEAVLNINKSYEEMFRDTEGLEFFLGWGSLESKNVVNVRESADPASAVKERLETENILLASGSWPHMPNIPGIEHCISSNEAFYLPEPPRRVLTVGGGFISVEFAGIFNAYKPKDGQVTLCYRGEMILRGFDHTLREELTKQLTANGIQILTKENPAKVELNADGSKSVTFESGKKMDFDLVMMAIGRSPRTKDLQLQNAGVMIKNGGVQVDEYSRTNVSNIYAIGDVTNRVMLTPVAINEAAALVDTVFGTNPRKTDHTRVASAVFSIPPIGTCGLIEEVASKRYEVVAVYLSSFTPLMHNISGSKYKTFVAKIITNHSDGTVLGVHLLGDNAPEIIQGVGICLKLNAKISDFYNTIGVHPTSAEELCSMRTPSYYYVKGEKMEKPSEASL

[9] = target: T4, Parathyroid hormone/parathyroid hormone-related peptide receptor (Homo sapiens, UniProt Q03431)
T4 sequence (Q03431 whole entry): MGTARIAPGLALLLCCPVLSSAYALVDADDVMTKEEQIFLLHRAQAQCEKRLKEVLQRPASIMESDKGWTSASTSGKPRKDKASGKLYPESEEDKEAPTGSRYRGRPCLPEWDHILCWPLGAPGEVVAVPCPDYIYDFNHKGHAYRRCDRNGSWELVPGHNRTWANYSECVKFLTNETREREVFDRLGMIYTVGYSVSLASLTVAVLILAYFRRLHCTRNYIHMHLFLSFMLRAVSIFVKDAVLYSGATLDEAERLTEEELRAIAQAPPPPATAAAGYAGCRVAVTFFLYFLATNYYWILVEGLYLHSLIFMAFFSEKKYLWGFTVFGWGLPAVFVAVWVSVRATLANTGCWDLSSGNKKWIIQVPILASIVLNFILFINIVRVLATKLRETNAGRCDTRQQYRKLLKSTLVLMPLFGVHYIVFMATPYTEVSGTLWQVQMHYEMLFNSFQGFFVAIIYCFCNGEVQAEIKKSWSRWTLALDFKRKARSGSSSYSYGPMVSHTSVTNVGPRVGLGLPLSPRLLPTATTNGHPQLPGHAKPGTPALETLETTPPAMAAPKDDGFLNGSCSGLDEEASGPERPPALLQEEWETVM

[10] = target: T4, Parathyroid hormone/parathyroid hormone-related peptide receptor; experiment: biochemical
[11] = target: T2, 3-oxo-5-alpha-steroid 4-dehydrogenase 1
[12] = target: T5, 3-oxo-5-alpha-steroid 4-dehydrogenase 1 (Rattus norvegicus, UniProt P24008)
T5 sequence (P24008 whole entry): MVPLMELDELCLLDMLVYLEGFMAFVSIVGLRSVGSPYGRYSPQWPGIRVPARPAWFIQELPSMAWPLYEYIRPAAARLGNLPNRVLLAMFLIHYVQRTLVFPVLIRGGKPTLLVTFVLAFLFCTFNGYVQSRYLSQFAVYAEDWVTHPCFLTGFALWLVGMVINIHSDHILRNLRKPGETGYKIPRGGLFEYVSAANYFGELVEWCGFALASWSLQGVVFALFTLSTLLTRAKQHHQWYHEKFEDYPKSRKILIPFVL

[13] = target: T2, 3-oxo-5-alpha-steroid 4-dehydrogenase 1; remark: listed apart in the source
[14] = target: T6, 3-oxo-5-alpha-steroid 4-dehydrogenase 2 (Rattus norvegicus, UniProt P31214)
T6 sequence (P31214 whole entry): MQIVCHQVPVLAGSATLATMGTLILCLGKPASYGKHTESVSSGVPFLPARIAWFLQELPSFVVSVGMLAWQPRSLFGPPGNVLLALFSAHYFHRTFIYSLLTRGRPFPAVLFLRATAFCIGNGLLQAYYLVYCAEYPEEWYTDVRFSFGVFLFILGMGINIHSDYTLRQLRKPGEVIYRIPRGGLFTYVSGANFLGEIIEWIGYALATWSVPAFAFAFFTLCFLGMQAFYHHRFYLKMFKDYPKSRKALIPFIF

[15] = target: Peptidyl-prolyl cis-trans isomerase FKBP1A (Homo sapiens, UniProt P62942); experiment: biochemical; assay type: cell-based
Sequence of Peptidyl-prolyl cis-trans isomerase FKBP1A (P62942 whole entry): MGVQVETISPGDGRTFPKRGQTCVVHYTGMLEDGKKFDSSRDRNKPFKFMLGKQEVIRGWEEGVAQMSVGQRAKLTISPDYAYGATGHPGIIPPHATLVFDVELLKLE

[16] = target: T3, 3-oxo-5-alpha-steroid 4-dehydrogenase 2

NS(=O)(=O)Cc1ccccc1 [PHENYLMETHANESULFONAMIDE] gave an IC50 (Carbonic anhydrase 2) of 630 nM and a pKa (physchem [1]) of 10.5.

O=C1Nc2cc(S(F)(F)(F)(F)F)ccc2/C1=C/c1ccc[nH]1 gave an EC50 (T47D) of 350 nM.

Work on Cc1cn2c(C(=O)NCc3ccc(S(F)(F)(F)(F)F)cc3)c(C)nc2s1 yielded a fraction unbound (in vitro) of 0.003.

CC(C)C[C@H](NC(=O)[C@@H](/C=C/CNC(=O)CNC(=O)[C@@H](N)Cc1ccc(O)cc1)Cc1ccccc1)C(=O)O gave a logD (physchem [2]) of -0.07 and a Ki [3] of 587 nM.

In the case of CC(C)C[C@H](NC(=O)[C@H](Cc1ccccc1)NC(=S)CNC(=O)CNC(=O)[C@@H](N)Cc1ccc(O)cc1)C(=O)O, the Ki [3] is reported as 47 nM.

CC(=O)N[C@@H](CC(=O)O)C(=O)N[C@@H](CCC(=O)O)C(=O)N[C@H](C(=O)N[C@@H](CCC(=O)O)C(=O)N[C@@H](CC1CCCCC1)C(=O)N[C@@H](CS)C(=O)O)C(c1ccccc1)c1ccccc1 (Ac-DE[Dip]E[Cha]C-OH) showed a Ki (NS3 protease) of 40 nM.

C[C@]12CC[C@@H]3c4ccc(C(F)(F)S(=O)(=O)O)cc4CC[C@H]3[C@@H]1CCC2=O showed a Ki (Steryl-sulfatase [4]) of 147000 nM and a Ki (Steryl-sulfatase [5]) of 73000 nM.

C[C@]12CC[C@@H]3c4ccc(CS(N)(=O)=O)cc4CC[C@H]3[C@@H]1CCC2=O showed a Ki (Steryl-sulfatase [5]) of 350000 nM.

Work on CC(C)C[C@H](NC(=O)[C@H](Cc1ccccc1)OC(=O)CNC(=O)CNC(=O)[C@@H](N)Cc1ccc(O)cc1)C(=O)O (H-YGG[PhLac]L-OH) yielded a Ki [3] of 34 nM.

For NS(=O)(=O)C(F)(F)c1ccccc1 [PHENYLDIFLUOROMETHANESULFONAMIDE], the IC50 (Carbonic anhydrase 2) was 58 nM and the pKa (physchem [1]) was 7.7.

Compound CC(C)(C)NC(=O)[C@H]1CC[C@H]2[C@@H]3CC=C4C=C(F)CC[C@]4(C)[C@H]3CC[C@]12C has an IC50 [6] of 1300 nM and an IC50 [7] of 480 nM.

CC(C)C[C@H](NC(=O)[C@@H](/C=C(\F)CNC(=O)CNC(=O)[C@@H](N)Cc1ccc(O)cc1)Cc1ccccc1)C(=O)O gave a logD (physchem [2]) of -0.11 and a Ki [3] of 43 nM.

C[N+](C)(CCCNc1cc(F)ccc1Nc1ccc(S(F)(F)(F)(F)F)cc1)Cc1ccc(Cl)c(Cl)c1 showed a Kic [8] of 28 µM.

For CC[C@H](NC(=O)[C@H](CC1CCCCC1)NC(=O)[C@H](CCC(=O)O)NC(=O)[C@@H](NC(=O)[C@H](CCC(=O)O)NC(=O)[C@H](CC(=O)O)NC(C)=O)C(c1ccccc1)c1ccccc1)C(=O)O (Ac-DE[Dip]E[Cha][Abu]-OH), the Ki (NS3 protease) was 700 nM.

Work on Cc1cn2c(C(=O)NCc3ccc(C(F)(F)F)cc3)c(C)nc2s1 yielded a fraction unbound (in vitro) of 0.009.

C[N+](C)(CCCNc1cc(F)ccc1Nc1ccc(C(F)(F)F)cc1)Cc1ccc(Cl)c(Cl)c1 showed a Kic [8] of 24 µM.

CC(C)(C)c1ccc(Nc2ccc(F)cc2NCCC[N+](C)(C)Cc2ccc(Cl)c(Cl)c2)cc1 showed a Kic [8] of 84 µM.

In the case of C[C@]12CC[C@@H]3c4ccc(C(F)(F)S(N)(=O)=O)cc4CC[C@H]3[C@@H]1CCC2=O, the Ki (Steryl-sulfatase [4]) is reported as 28000 nM and the Ki (Steryl-sulfatase [5]) is reported as 82000 nM.

In the case of NS(=O)(=O)C(F)c1ccccc1 (configuration not stated), the IC50 (Carbonic anhydrase 2) is reported as 220 nM and the pKa (physchem [1]) is reported as 8.8.

CC[C@H](C)[C@H](NC(=O)[C@H](CCC(=O)O)NC(=O)[C@H](CO)NC(=O)[C@@H](/C=C(\Cl)[C@H](C)N)C(C)C)C(=O)N[C@@H](CCC(N)=O)C(=O)N[C@@H](CC(C)C)C(=O)N[C@@H](CCSC)C(=O)N[C@@H](Cc1c[nH]cn1)C(=O)N[C@@H](CC(N)=O)C(=O)N[C@@H](CC(C)C)C(=O)NCC(=O)N[C@@H](CCCCN)C(=O)N[C@@H](Cc1c[nH]cn1)C(=O)N[C@@H](CC(C)C)C(=O)N[C@@H](CC(N)=O)C(=O)N[C@@H](CO)C(=O)N[C@@H](CCSC)C(=O)N[C@@H](CCC(=O)O)C(=O)N[C@@H](CCCN=C(N)N)C(=O)N[C@H](C(=O)N[C@@H](CCC(=O)O)C(=O)N[C@@H](Cc1c[nH]c2ccccc12)C(=O)N[C@@H](CC(C)C)C(=O)N[C@@H](CCCN=C(N)N)C(=O)N[C@@H](CCCCN)C(=O)N[C@@H](CCCCN)C(=O)N[C@@H](CC(C)C)C(=O)N[C@@H](CCC(N)=O)C(=O)N[C@@H](CC(=O)O)C(=O)N[C@H](C(=O)N[C@@H](Cc1c[nH]cn1)C(=O)N[C@@H](CC(N)=O)C(=O)N[C@@H](Cc1ccccc1)C(=O)N[C@H](C(=O)N[C@@H](C)C(N)=O)C(C)C)C(C)C)C(C)C (X1-SEIQLMHNLGKHLNSMERVEWLRKKLQDVHNFVA-NH2) gave an EC50 [9] of 7.9 nM and a Kd [10] of 1.26 nM.

Compound C[C@]12C=CC(=O)N[C@@H]1CC[C@@H]1[C@@H]2CC[C@]2(C)[C@@H](C(=O)NC(c3ccccc3)(C(F)(F)F)C(F)(F)F)CC[C@@H]12 has an IC50 [11] of 3.9 nM, an IC50 [12] of 34 nM and an IC50 [13] of 20 nM. The IC50 [14] was 34 nM.

CC(NC(=O)[C@H]1CC[C@H]2[C@@H]3CC[C@H]4NC(=O)C=C[C@]4(C)[C@H]3CC[C@]12C)(c1ccccc1)C(F)(F)F (some centres not stated) showed an IC50 [11] of 36 nM, an IC50 [12] of 15 nM and an IC50 [13] of 16 nM. It also gave an IC50 [14] of 15 nM.

For COc1cc(C(=O)C(=O)N2CCC[C@H]2C(=O)OCCCc2cccnc2)cc(OC)c1OC, the Ki [15] was 4000 nM.

CC(=O)N[C@@H](CC(=O)O)C(=O)N[C@@H](CCC(=O)O)C(=O)N[C@H](C(=O)N[C@@H](CCC(=O)O)C(=O)N[C@@H](CC1CCCCC1)C(=O)N[C@@H](CC(F)F)C(=O)O)C(c1ccccc1)c1ccccc1 (Ac-DE[Dip]E[Cha][Abu(4,4-F2)]-OH) gave a Ki (NS3 protease) of 30 nM.

For O=C1Nc2ccc(S(F)(F)(F)(F)F)cc2/C1=C/c1ccc[nH]1, the EC50 (T47D) was 490 nM.

In the case of C[C@]12C=CC(=O)N[C@@H]1CC[C@@H]1[C@@H]2CC[C@]2(C)[C@@H](C(=O)Nc3cc(C(F)(F)F)ccc3C(F)(F)F)CC[C@@H]12 [DUTASTERIDE], the IC50 [11] is reported as 4 nM and the IC50 [16] is reported as < 0.1 nM.
